Experimental data from patent US4223146A, “4,5,6,7-Tetrahydroimidazo-[4,5-c]-pyridine derivatives” (Farmitalia Carlo Erba S.p.A., priority 1978, dated 1980).
Like-named read-outs stand apart in the source and are kept apart here.

How the values were obtained:
gastric secretion = test: Inhibition of Gastric Secretion in Rats (pylorus ligature); format: in vivo, Sprague-Dawley rats (male); conditions: Rattus norvegicus, sc, 4 h, s.c. at the time of ligature, read-out: ED50 Antisecretory s.c.
Description: (2) Inhibition of Gastric Secretion in Rats (Shay, Gastroenterology, 1945, 43, 5).
Gastric antisecretory activity was evaluated in rats by the pylorus ligature technique. Six Sprague-Dawley male rats (110-130 g) were used for each group. Twenty-four hours before the test, the rats were deprived of food but their water supply was maintained. On the day of the operation, the pylorus was ligated under light ether anaesthesia. Four hours after the ligature, the rats were sacrificed, the stomach secretion was collected and centrifuged at 3500 r.p.m. for 10 minutes, and the volume, less sediment, was determined.
The amount of the free hydrochloric acid in the gastric juice was determined by titration against 0.01 N sodium hydroxide, using Topfer's Indicator. Each compound was injected subcutaneously at the time of ligature.

restraint ulcer = test: Inhibition of Restraint Ulcer in Rats; format: in vivo, Sprague-Dawley rats (male); conditions: Rattus norvegicus
Description: (B 1) Inhibition of Restraint Ulcer in Rats (Bonfils et al, Therapie, 1960, 15, 1096).
Six Sprague - Dawley male rats (100-120 g) fasted for 24 hours were used for each group. A square flexible small-mesh wire netting was used for immobilization. After 4 hours immobilization the rats were sacrificed, their stomachs were removed, and lesions counted under a dissecting microscope.
The results obtained are reported below in Table 1, wherein the values are given as ED50.
The compounds were administered subcutaneously (s.c.) immediately before the immobilization or orally (os) one hour before.

[1] = Anticholinergic Activity in Rats; parameters: species or system Sprague-Dawley rats (male); conditions: rat, in vivo
Description: (3) Anticholinergic Activity in Rats. Considering that many anti-ulcer agents display, as does atropine, a remarkable but undesired anti-cholinergic activity, some derivatives were assessed for their antagonism against chromodacryorrhea induced by carbacholine in rats. (Winburg M. et al, J. Pharm. Exp. Therap., 1949, 95, 53).

[2] = tested on: cysteamine-induced duodenal lesions; test: Inhibition of Cysteamine-Induced Duodenal Lesions in Rats; format: in vivo, Sprague-Dawley rats (male); conditions: Rattus norvegicus
Description: (5) Inhibition of Cysteamine-Induced Duodenal Lesions in Rats.
Six Sprague-Dawley male rats (200-225 g) were used for each group. Twenty-four hours before the test, the rats were deprived of food but allowed free access to water. Cysteamine HCl (400 mg/Kg) dissolved in physiological saline was administered subcutaneously.
Antagonists were given orally 60 minutes, and subcutaneously 30 minutes, before the cysteamine treatment. The animals were kept fasting completely for 18-24 hours after cysteamine administration, then sacrificed by an overdose of ether.
The stomach and duodenum of each rat were excised to determine the presence of gastroduodenal lesions. The sum of the area (mm^2) of lesions for each rat was measured under a dissecting microscope (10X) with a square grid and then used as an ulcer index. The percentage inhibition was calculated in respect of the ulcer index of the control group.

Toxicity (LD50) in mice = conditions: mouse, in vivo, po, os
Description: Four compounds were examined also for the activity on acetylsalicyclic acid- and cysteamine-induced ulcers and their toxicity was also determined in mice.

[3] = tested on: acetylsalicylic acid-induced gastric ulcers; test: Inhibition of Acetylsalicylic Acid-Induced Gastric Ulcers in Rats; format: in vivo, Sprague-Dawley rats (male); conditions: Rattus norvegicus, 4 h
Description: (4) Inhibition of Acetylsalicylic Acid-Induced Gastric Ulcers in Rats.
Six Sprague-Dawley male rats (200-250 g) were used for each group. Twenty-four hours before the test, the rats were deprived of food but their water supply was maintained. Acetylsalicylic acid (100 mg/Kg) suspended in 5% gum arabic solution was given orally to the rats. Antagonists, at 3 dose levels, were given orally 60 minutes, and subcutaneously 30 minutes, before the acetylsalicylic acid treatment.
After sacrificing the animals, four hours after administration of the antagonist, the stomachs were removed, slightly inflated and immersed in 1% formalin solution for 10 minutes for fixation.
Subsequently, the stomachs were incised along the greater curvature and the lengths of lesions measured under a dissecting microscope (10 X) with a square grid. The sum of the lengths (mm) of the lesions per rat was used as the ulcer index. The percentage inhibition was calculated in respect of the ulcer index of the control group.

[4] = po, 1 h, orally one hour before immobilization, read-out: ED50 Antiulcer os
[5] = sc, 4 h, s.c. immediately before the immobilization, read-out: ED50 Antiulcer s.c.
[6] = po, os, read-out: ED50 Anticholinergic os
[7] = sc, read-out: ED50 Anticholinergic s.c.
[8] = po, orally 60 minutes before cysteamine, read-out: ED50 Cysteamine os
[9] = sc, s.c. 30 minutes before cysteamine, read-out: ED50 Cysteamine s.c.
[10] = po, orally 60 minutes before acetylsalicylic acid, read-out: ED50 Acetylsalicilic acid os
[11] = sc, s.c. 30 minutes before acetylsalicylic acid, read-out: ED50 Acetylsalicilic acid s.c.

Compound | ED50 (gastric secretion) [mg/kg] | ED50 (restraint ulcer; [4]) [mg/kg] | ED50 (restraint ulcer; [5]) [mg/kg] | ED50 [1, 6] [mg/kg] | ED50 [1, 7] [mg/kg] | ED50 [2, 8] [mg/kg] | ED50 [2, 9] [mg/kg] | LD50 (Toxicity (LD50) in mice) [mg/kg] | ED50 [3, 10] [mg/kg] | ED50 [3, 11] [mg/kg]
CCC1c2ncn(CC)c2CCN1C(=S)NC(C)C (stereo not drawn) [I C2 H5 C2 H5 i.Pr, 1,4-Diethyl-5-(N-isopropylthiocarbamoyl)-4,5,6,7-tetrahydroimidazo-[4,5-c]-pyridine] | 6 | 3.5 | 2 | > 400 | > 200 | 10 | 0.5 | > 2500 | 0.7 | 0.7
CCC1c2ncn(C)c2CCN1C(=S)NC(C)C (stereo not drawn) [I CH3 C2 H5 i.Pr, 1-Methyl-4-ethyl-5-(N-isopropylthiocarbamoyl)-4,5,6,7-tetrahydroimidazo-[4,5-c]-pyridine] | 20 | 2.5 | 4 | > 100 | > 100 | 40 | 20 | > 2500 | 20 | 10
CNC(=S)N1CCc2c(ncn2C)C1 [I CH3 H CH3, 1-Methyl-5-(N-methylthiocarbamoyl)-4,5,6,7-tetrahydroimidazo-[4,5-c]-pyridine] | 30 | 25 | 15 | > 100 | > 100 |  |  |  |  | 
CC(C)NC(=S)N1CCc2c(ncn2C)C1 [I CH3 H i.Pr, 1-Methyl-5-(N-isopropylthiocarbamoyl)-4,5,6,7-tetrahydroimidazo-[4,5-c]-pyridine] | 26 | 4.5 | 1.2 | 100 | 25 |  |  |  |  | 
CCC1c2c(ncn2CC)CCN1C(=S)NC(C)C (stereo not drawn) [II C2 H5 C2 H5 i.Pr, 3,4-diethyl-5-(N-isopropylthiocarbamoyl)-4,5,6,7-tetrahydroimidazo-[4,5-c]-pyridine, reference compound] | 10 |  |  | > 100 | > 100 | 40 | 5.5 | 870 | 9 | 6.5
CCC1c2c(ncn2C)CCN1C(=S)NC(C)C (stereo not drawn) [II CH3 C2 H5 i.Pr, 3-Methyl-4-ethyl-5-(N-isopropylthiocarbamoyl)-4,5,6,7-tetrahydroimidazo-[4,5-c]-pyridine, reference compound] | 50 | 50 | 10 | 60 | 40 | 100 | 50 | 980 | 40 | 25
CNC(=S)N1CCc2ncn(C)c2C1 [II CH3 H CH3, reference compound] | 50 | 50 | 50 | 100 | 50 |  |  |  |  | 
CC(C)NC(=S)N1CCc2ncn(C)c2C1 [II CH3 H i.Pr, 3-Methyl-5-(N-isopropylthiocarbamoyl)-4,5,6,7-tetrahydroimidazo-[4,5-c]-pyridine] |  |  |  | 50 | 7 |  |  |  |  | 
C/N=C(\S)NCCSCc1[nH]cnc1C [Methiamide] |  |  |  | 85 | 65 |  |  |  |  | 
